Measured values reported in US9499493B2, “2,4-pyrimidinediamine compounds and their uses” (Rigel Pharmaceuticals, Inc., priority 2002, dated 2016).
Structures can show the parent of a compound that is named as a salt.

Tests used:
[1] = system: cultured human mast cells (CHMC); assay: CHMC low cell density ionomycin activation: tryptase assay; type: cell-based
[2] = system: cultured human mast cells (CHMC); assay: CHMC low cell density IgE activation: tryptase assay; type: cell-based; settings: anti-IgE
In short: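 Cells pelleted, taken up in warm MT, plated at 1000-1500/well, held 1 hr 37° C. Anti-IgE added, 30 min 37° C. Plates spun; supernatant mixed with tryptase substrate, 30 min RT.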

SMILES | IC50 [1] [nM] | IC50 [2] [nM] | IC50 ([1]; HCl salt) [nM] | IC50 ([2]; HCl salt) [nM]
N#CCOc1ccc(Nc2nc(Nc3ccc4c(c3)OCCO4)ncc2F)cc1 [R945172, N4-(4-Cyanomethyleneoxyphenyl)-N2-(3,4-ethylenedioxyphenyl)-5-fluoro-2,4-pyrimidinediamine] | > 10000 | 1180 |  | 
CNC(=O)Cn1ncc2cc(Nc3ncc(F)c(Nc4ccc5c(c4)OCCO5)n3)ccc21 [R935240, N4-(3,4-Ethylenedioxyphenyl)-5-fluoro-N2-[1-(N-methylaminocarbonyl)methyl-indazoline-5-yl]-2,4-pyrimidinediamine] | > 10000 | 606 |  | 
Fc1cnc(Nc2ccc3c(c2)CCO3)nc1Nc1ccc2c(c1)CCO2 [R909237, N2,N4-Bis(dihydrobenzofuran-5-yl)-5-fluoro-2,4-pyrimidinediaminediamine] | > 10000 | > 10000 |  | 
CCOC(=O)c1cnc(Nc2ccc3cn[nH]c3c2)nc1Nc1ccc2cn[nH]c2c1 [R926320, N2,N4-Bis(3-indazol-6-yl)-5-ethoxycarbonyl-2,4-pyrimidinediamine] | > 10000 | > 10000 |  | 
CNC(=O)COc1cc(Nc2ncc(F)c(Nc3ccc4c(c3)OCCO4)n2)ccc1OC [R926828, N4-(3,4-Ethylenedioxyphenyl)-5-fluoro-N2-[4-methoxy-3-(N-methylamino)carbonylmethyleneoxyphenyl]-2,4-pyrimidinediamine] | > 10000 | 306 |  | 
COC(=O)COc1cc(Nc2ncc(F)c(Nc3cccc(O)c3)n2)cc(OCC(=O)OC)c1 [R926926, N2-[3,5-Bis(methoxycarbonylmethyleneoxy)phenyl]-5-fluoro-N4-(3-hydroxyphenyl)-2,4-pyrimidinediamine] | > 10000 | 401 |  | 
CNC(=O)COc1cccc(Nc2ncc(F)c(Nc3ccc(C)c(Cl)c3)n2)c1 [R926839, N4-(3-Chloro-4-methylphenyl)-5-fluoro-N2-[3-(N-methylamino)carbonylmethyleneoxyphenyl]-2,4-pyrimidinediamine] | > 10000 | 161 |  | 
CCOC(=O)CCn1ncc2cc(Nc3ncc(F)c(Nc4ccc(Cl)cc4)n3)ccc21 [R935353, N4-(4-Chlorophenyl)-N2-[1-(2-ethoxycarbonylethyl)indazoline-5-yl]-5-fluoro-2,4-pyrimidinediamine] | > 10000 | > 10000 |  | 
CCOC(=O)COc1cccc(Nc2ncc(F)c(Nc3cccc(C(C)(C)C)c3)n2)c1 [R940270, N4-(3-tert-Butylphenyl)-N2-(3-ethoxycarbonylmethyleneoxyphenyl)-5-fluoro-2,4-pyrimidinediamine] | 8740 | 2140 |  | 
CNC(=O)COc1cccc(Nc2ncc(F)c(Nc3cccc(N)c3)n2)c1 [R950262, N4-(3-Aminophenyl)-5-fluoro-N2-[3-(N-methylamino)carbonylmethyleneoxyphenyl]-2,4-pyrimidinediamine HCl salt] |  |  | > 10000 | 285
COC(=O)COc1cccc(Nc2ncc(F)c(Nc3ccc4c(c3)C(OC)CCO4)n2)c1 (stereo not shown) [R950295, N4-(4-Methoxy-3,4-dihydro-2H-1-benzopyran-6-yl)-5-fluoro-N2-[3-methoxycarbonylmethyleneoxyphenyl]-2,4-pyrimidinediamine] | 8800 | 2040 |  | 
CC(C)(C)c1cccc(Nc2nc(Nc3cccc(OCC(=O)NCCO)c3)ncc2F)c1 [R940295, N4-(3-tert-Buthylpheny)-5-fluoro-N2-[3-(N-2-hydroxyethylamino)carbonylmethyleneoxyphenyl]-2,4-pyrimidinediamine] | 8810 | 126 |  | 
CS(=O)(=O)Nc1ccc(Nc2ncc(F)c(Nc3ccc(NS(C)(=O)=O)cc3)n2)cc1 [R950083, N2,N4-Bis[(4-methylsulfonylamino)phenyl]-5-fluoro-2,4-pyrimidinediamine] | > 10000 | > 10000 |  | 
N#Cc1cnc(Nc2ccc(OCC(=O)N3CCOCC3)cc2)nc1Nc1ccc(OCC(=O)N2CCOCC2)cc1 [R925854, N2,N4-Bis[4-(N-morphonlino)carbonylmethyleneoxyphenyl]-5-cyano-2,4-pyrimidinediamine] | > 10000 | > 10000 |  | 
CCOC(=O)CCn1ncc2ccc(Nc3nc(Nc4cccc(OC(C)C)c4)ncc3F)cc21 [R935289, N4-[1-(2-Ethoxycarbonylethyl)indazoline-6-yl]-5-fluoro-N2-(isopropoxyphenyl)-2,4-pyrimidinediamine] | > 10000 | 1690 |  | 
Oc1cccc(Nc2nc(Nc3ccc(C(F)(F)F)c(Cl)c3)ncc2F)c1 [R926844, N2-(3-Chloro-4-trifluoromethylphenyl)-5-fluoro-N4-(3-hydroxyphenyl)-2,4-pyrimidinedimine] | > 10000 | 1100 |  | 
CC(O)CNC(=O)COc1cccc(Nc2ncc(F)c(Nc3ccc4c(c3)NCCO4)n2)c1 (stereo not shown) [R909251, N4-(1,4-Benzoxazin-6-yl)-5-fluoro-N2-[3-(N-2-hydroxypropylamino)carbonylmethyleneoxyphenyl]-2,4-pyrimidinediamine] | > 10000 | 138 |  | 
CCNC(=O)Oc1cccc(Nc2nc(Nc3cccc(OCC(=O)NC)c3)ncc2F)c1 [R926919] | > 10000 | 1410 |  | 

SMILES | IC50 [1] [nM] | IC50 [2] [nM] | IC50 ([1]; HCl salt) [nM] | IC50 ([2]; HCl salt) [nM]
O=C1COc2cc(Nc3nc(Nc4cccc(O)c4)ncc3F)ccc2N1 [R908698] | > 10000 | 1670 |  | 
O=C(CNc1cccc(Nc2ncc(F)c(Nc3ccc4c(c3)OCCO4)n2)c1)N(CCO)CCO [R950199, N2-[3-(N,N′-Bis(2-N-hydroxyethyl)amino)carbonylmethyleneaminophenyl]-N4-(3,4-ethylenedioxyphenyl)-5-fluoro-2,4-pyrimidinediamine] | > 10000 | 408 |  | 
O=C(COc1cccc(Nc2ncc(F)c(Nc3ccc4c(c3)OCCO4)n2)c1)N1CCNCC1 [R926503, N4-(3,4-Ethylenedioxyphenyl)-5-fluoro-N2-[3-(N-piperazino)carbonylmethyleneoxyphenyl]-2,4-pyrimidinediamine] | > 10000 | 452 |  | 
CNC(=O)COc1cccc(Nc2ncc(F)c(Nc3ccc4c(c3)OCCN4C)n2)c1 [R908705, 5-Fluoro-N2-[(N-methylacetamido-2)-3-phenoxy]-N4-(N-methyl-1,4-benzoxazin-7-yl)-2,4-pyrimidinediamine] | > 10000 | 801 |  | 
Cn1nnc(COc2ccc(Nc3nc(Nc4ccc(OCc5nnnn5C)cc4)ncc3F)cc2)n1 [R945047, 5-Fluoro-N2,N4-[4-(1-methyl-1,2,3,4-tetrazol-5-yl)methyleneoxyphenyl], [4-(2-methyl-1,2,3,4-tetrazol-5-yl)methyleneoxyphenyl]-2,4-pyrimidinediamine] | > 10000 | 845 |  | 
O=C(COc1cccc(Nc2ncc(F)c(Nc3ccc4c(c3)OCCO4)n2)c1)NC(CO)CO [R926784, N2-[3-(N-1,3-Dihydroxy-2-propylamino)carbonylmethyleneoxyphenyl]-N4-(3,4-ethylenedioxyphenyl)-5-fluoro-2,4-pyrimidinediamine] | > 10000 | 252 |  | 
CNC(=O)COc1cccc(Nc2ncc(F)c(Nc3ccc4c(c3)OCC(=O)N4)n2)c1 [R908700, N4-(1,4-Benzoxazine-3-on-7-yl)-5-fluoro-N2-((N-methylacetamido-2)-3-phenoxy)-2,4-pyrimidinediamine] | > 10000 | 1270 |  | 
O=C(c1cc2cc(Nc3ncc(F)c(Nc4ccc5oc(C(=O)N6CCOCC6)cc5c4)n3)ccc2o1)N1CCOCC1 [R950172, N2,N4-Bis[2-(N-morpholinocarbonyl)benzofurane-5-yl]-5-fluoro-2,4-pyrimidinediamine] | > 10000 | 983 |  | 
CCOC(=O)COc1ccc(Nc2ncc(F)c(Nc3ccc(OCC(=O)OCC)c(Cl)c3)n2)cc1Cl [R926676, N2,N4-Bis[3-chloro-4-(ethoxycarbonylmethyleneoxy)phenyl]-5-fluoro-2,4-pyrimidinediamine] | > 10000 | 760 |  | 
OCCOc1cccc(Nc2ncc(F)c(Nc3ccc(CO)c(CO)c3)n2)c1 [R940292, N4-[3,4-Bis(hydroxymethyl)phenyl]-5-fluoro-N2-[3-(2-hydroxyethyleneoxy)phenyl]-2,4-pyrimidinediamine] | > 10000 | 683 |  | 
CNC(=O)COc1cc(Nc2ncc(F)c(Nc3ccc4cc[nH]c4c3)n2)ccc1OC [R926752, 5-Fluoro-N4-[(1H)-indol-6-yl]-N2-[4-methoxy-3-[(N-methylamino)carbonylmethyleneoxy]phenyl]-2,4-pyrimidinediamine] | > 10000 | 338 |  | 
Fc1cnc(Cl)nc1Nc1ccc2c(c1)CNCC2 [Compound R926912] | > 10000 | > 10000 |  | 
O=C(CNc1cccc(Nc2ncc(F)c(Nc3cccc(O)c3)n2)c1)N1CCOCC1 [R950221, 5-Fluoro-N4-(3-hydroxyphenyl)-N2-[3-(N-morpholino)carbonylmethyleneaminophenyl]-2,4-pyrimidinediamine] | > 10000 | 636 |  | 
COc1cc(-c2ccccc2)c(C)cc1Nc1ncc(F)c(Nc2cc(C)c(-c3ccccc3)cc2OC)n1 [R926401, N2,N4-Bis[(2-methoxy-5-methyl-4-phenyl)phenyl]-5-fluoro-2,4-pyrimidinediamine] | > 10000 | > 10000 |  | 
Cc1cc(Nc2nc(Nc3cccc(OCC(=O)N4CCNCC4)c3)ncc2F)cc(Cl)c1O [R945149, N4-(3-Chloro-4-hydroxy-5-methylphenyl)-5-fluoro-N2-[3-(N-piperazino)carbonylmethyleneoxyphenyl]-2,4-pyrimidinediamine] | > 10000 | 391 |  | 
CCOC(=O)COc1cccc(Nc2ncc(C(=O)OCC)c(Nc3cccc(O)c3)n2)c1 [R926798, N4-(3-Hydroxyphenyl)-N2-(3-ethoxycarbonylmethyleneoxyphenyl)-5-ethoxycarbonyl-2,4-pyrimidinediamine] | 5870 | 2350 |  | 
CNC(=O)COc1cccc(Nc2ncc(F)c(Nc3ccc(OC)c(C(=O)NC)c3)n2)c1 [R940306, 5-Fluoro-N2-[3-(methylaminocarbonylmethyleneoxy)phenyl]-N4-(3-methylaminocarbonyl-4-methoxyphenyl)-2,4-pyrimidinediamine] | > 10000 | 1100 |  | 
